Measurements as given in paper PMC11939470, “The Cyclic Antimicrobial Peptide C-LR18 Has Enhanced Antibacterial Activity, Improved Stability, and a Longer Half-Life Compared to the Original Peptide” (Antibiotics, 2025).
Where a SMILES comes first, the peptide text is derived from it. Bridges are numbered along the chain shown (N, C = ends).

Experiment: Half-life of peptides in plasma in vitro (HPLC)
Format: in vitro ADME, rat
Method: Half-life of peptides in vitro was determined using HPLC according to the method described in [30]. Blood from SPF SD rats was collected in a centrifuge tube containing 0.5% heparin sodium via cardiac sampling. Plasma was separated and stored at −80 °C until analyzed. The plasma samples with final concentrations of 25 μg/mL, 50 μg/mL, 100 μg/mL, 200 μg/mL, 400 μg/mL, and 750 μg/mL were prepared by mixing 1500 μg/mL of antimicrobial peptides with rat plasma, then adding acetonitrile containing 0.1% TFA at 1/1 volume. After vortexing for 30 s, the samples were centrifuged at 14,000 r/min for 20 min, the supernatant was aspirated, sterilized using a 0.22 μm sterilization filter, and 30 μL of the sample was used for HPLC determination. After HPLC detection, the value of the chromatographic peak area was counted, the mathematical relationship between the sample concentration and the chromatographic peak area was calculated, and the standard curve was drawn. The standard curve was regressio-calculated by linear fitting Y = aX + b and weighted least square method (w = 1/c2).
The 1 mg/mL peptide solution was mixed with SD rat plasma and incubated in a water bath at 37 °C. Samples were taken at different time points of 0, 20, 30, 40, 60, 80, 100, 120, 140, 160, 180, 200, 210, 240, 300, 400, 500, and 600 min. After vortexing for 30 s, the samples were centrifuged at 14,000 r/min for 20 min, the supernatant was aspirated and sterilized using a 0.22 μm sterilization filter, and 30 μL of the sample was used for HPLC determination. The experiment was repeated three times. The peak area measured by HPLC was substituted into the standard curve obtained by the above experiment, the peptide concentration at different time points was calculated, and the half-life of peptides in plasma was calculated.

CC(C)C[C@@H]1NC(=O)[C@H](CCCNC(=N)N)NC(=O)[C@H](CCCNC(=N)N)NC(=O)[C@H](CC(C)C)NC(=O)[C@H](CC(C)C)NC(=O)[C@H](CCCNC(=N)N)NC(=O)[C@H](CC(C)C)NC(=O)[C@@H]2CCCN2C(=O)[C@H](CCCNC(=N)N)NC(=O)[C@H](CCCNC(=N)N)NC(=O)[C@@H]2CCCN2C(=O)[C@H](CC(C)C)NC(=O)[C@H](CCCNC(=N)N)NC(=O)[C@H](CC(C)C)NC(=O)[C@H](CC(C)C)NC(=O)[C@H](CCCNC(=N)N)NC(=O)[C@H](CCCNC(=N)N)NC(=O)[C@H](CC(C)C)NC(=O)[C@@H](N)CSSC[C@@H](C(=O)O)NC1=O [C-LR18] (H-CLRRLLRLPRRPLRLLRRLC-OH; disulfide 1-20; N-terminus and C-terminus assumed)
half-life (1 mg/mL peptide solution mixed with SD rat plasma (heparin), 37 °C water bath, 0–600 min, HPLC, repeated three times): 209 ± 20.2 min
peptide degraded in plasma (after 210 min, rat plasma 37 °C, HPLC): More than half
peptide detected in plasma samples (after 600 min, rat plasma 37 °C, HPLC): no C-LR18 could be detected
half-life in rat plasma relative to LR18 (in vitro rat plasma): 3.37 times
prolongation of half-life in rat plasma versus LR18 (in vitro rat plasma): 147.33 min
